Holding throughout (type): cell-based
The target in series [1] is T1, Estrogen receptor (Homo sapiens) (UniProt P03372).
T1 sequence (whole entry): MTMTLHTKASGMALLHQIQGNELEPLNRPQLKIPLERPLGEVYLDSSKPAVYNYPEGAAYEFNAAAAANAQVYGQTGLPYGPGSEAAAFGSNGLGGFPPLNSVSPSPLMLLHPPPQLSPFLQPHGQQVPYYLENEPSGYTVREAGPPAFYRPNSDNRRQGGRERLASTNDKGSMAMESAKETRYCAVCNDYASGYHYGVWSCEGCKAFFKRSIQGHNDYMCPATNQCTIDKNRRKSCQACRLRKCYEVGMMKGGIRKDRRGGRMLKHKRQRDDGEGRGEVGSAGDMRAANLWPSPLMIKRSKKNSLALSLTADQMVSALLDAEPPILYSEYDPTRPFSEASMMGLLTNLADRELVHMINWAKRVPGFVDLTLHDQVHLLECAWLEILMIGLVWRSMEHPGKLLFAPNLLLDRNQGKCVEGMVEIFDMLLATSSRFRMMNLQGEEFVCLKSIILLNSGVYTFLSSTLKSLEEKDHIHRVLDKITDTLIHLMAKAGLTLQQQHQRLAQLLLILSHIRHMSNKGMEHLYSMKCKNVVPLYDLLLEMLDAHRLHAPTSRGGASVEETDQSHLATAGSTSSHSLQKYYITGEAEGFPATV
Nature of the series: Induction of ERalpha degradation in human MCF7 cells at 10 to 20 uM after 6 hrs by Western blot analysis. In general terms: A western blot detects proteins with antibodies after separation by electrophoresis.

The next series has as its system MCF7. Nature of the series: Cytotoxicity against human MCF7 cells at 20 uM after 6 hrs. The conditions noted are these: mcf7, 6 h.
The target in series [2] is T1, Estrogen receptor (Homo sapiens). Kind of series: Induction of ERalpha degradation in human MCF7 cells at 10 to 20 uM after 6 hrs by Western blot analysis in presence of MG132.
Series [3] deals with Baculoviral IAP repeat-containing protein 2 (Homo sapiens) (UniProt Q13490). Kind of series: Induction of cIAP1 degradation in human MCF7 cells at 10 to 20 uM after 6 hrs by Western blot analysis in presence of MG132.
Baculoviral IAP repeat-containing protein 2 (Homo sapiens), sequence (Q13490 whole entry): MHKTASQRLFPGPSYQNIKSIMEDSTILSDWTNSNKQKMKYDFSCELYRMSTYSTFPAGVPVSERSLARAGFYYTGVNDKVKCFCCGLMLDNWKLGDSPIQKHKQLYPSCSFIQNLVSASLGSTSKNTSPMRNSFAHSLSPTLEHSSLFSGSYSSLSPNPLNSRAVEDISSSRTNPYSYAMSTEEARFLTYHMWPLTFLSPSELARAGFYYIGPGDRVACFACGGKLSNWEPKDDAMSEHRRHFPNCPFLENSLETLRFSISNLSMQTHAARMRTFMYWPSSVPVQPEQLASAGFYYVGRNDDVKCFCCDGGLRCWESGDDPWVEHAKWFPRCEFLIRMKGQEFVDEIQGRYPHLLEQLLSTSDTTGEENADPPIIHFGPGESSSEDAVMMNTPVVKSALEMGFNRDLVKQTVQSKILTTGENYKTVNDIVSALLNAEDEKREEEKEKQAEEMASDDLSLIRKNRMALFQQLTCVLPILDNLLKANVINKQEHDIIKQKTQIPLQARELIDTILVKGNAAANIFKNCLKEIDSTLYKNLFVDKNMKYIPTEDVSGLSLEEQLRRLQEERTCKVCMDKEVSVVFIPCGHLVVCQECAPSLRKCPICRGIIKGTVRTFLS
The target in series [4] is T2, Androgen receptor (Homo sapiens) (UniProt P10275).
T2 sequence (whole entry): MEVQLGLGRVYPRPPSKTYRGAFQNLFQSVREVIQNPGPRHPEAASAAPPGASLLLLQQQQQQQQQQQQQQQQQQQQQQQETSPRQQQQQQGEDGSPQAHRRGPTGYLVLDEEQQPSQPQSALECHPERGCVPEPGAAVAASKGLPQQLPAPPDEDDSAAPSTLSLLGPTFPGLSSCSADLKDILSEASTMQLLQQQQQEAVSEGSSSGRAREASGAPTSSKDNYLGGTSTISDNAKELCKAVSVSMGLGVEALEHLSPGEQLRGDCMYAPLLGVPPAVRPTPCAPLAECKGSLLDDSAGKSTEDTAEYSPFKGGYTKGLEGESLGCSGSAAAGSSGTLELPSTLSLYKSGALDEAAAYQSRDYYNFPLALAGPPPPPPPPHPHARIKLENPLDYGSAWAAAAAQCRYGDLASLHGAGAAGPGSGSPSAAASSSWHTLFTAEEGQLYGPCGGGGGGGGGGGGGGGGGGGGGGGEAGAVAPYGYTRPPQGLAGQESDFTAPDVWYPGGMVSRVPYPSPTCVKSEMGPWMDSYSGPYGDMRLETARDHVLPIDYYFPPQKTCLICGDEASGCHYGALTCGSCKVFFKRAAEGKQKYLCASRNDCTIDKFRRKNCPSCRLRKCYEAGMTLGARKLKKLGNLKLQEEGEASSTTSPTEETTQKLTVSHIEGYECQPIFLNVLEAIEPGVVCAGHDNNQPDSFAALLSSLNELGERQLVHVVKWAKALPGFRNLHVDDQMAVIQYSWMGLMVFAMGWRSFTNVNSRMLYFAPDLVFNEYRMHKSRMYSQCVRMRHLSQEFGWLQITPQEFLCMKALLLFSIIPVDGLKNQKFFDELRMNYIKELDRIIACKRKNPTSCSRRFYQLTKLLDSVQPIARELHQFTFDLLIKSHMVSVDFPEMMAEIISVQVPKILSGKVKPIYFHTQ
Kind of series: Induction of AR degradation in human MCF7 cells at 10 to 20 uM after 6 hrs by Western blot analysis.

Series [5] has as its target T2, Androgen receptor (Homo sapiens). Kind of series: Induction of AR degradation in human MCF7 cells at 10 to 20 uM after 6 hrs by Western blot in presence of MG132.
Series [6] deals with T3, Aryl hydrocarbon receptor (Homo sapiens, UniProt P35869).
T3 sequence (P35869 whole entry): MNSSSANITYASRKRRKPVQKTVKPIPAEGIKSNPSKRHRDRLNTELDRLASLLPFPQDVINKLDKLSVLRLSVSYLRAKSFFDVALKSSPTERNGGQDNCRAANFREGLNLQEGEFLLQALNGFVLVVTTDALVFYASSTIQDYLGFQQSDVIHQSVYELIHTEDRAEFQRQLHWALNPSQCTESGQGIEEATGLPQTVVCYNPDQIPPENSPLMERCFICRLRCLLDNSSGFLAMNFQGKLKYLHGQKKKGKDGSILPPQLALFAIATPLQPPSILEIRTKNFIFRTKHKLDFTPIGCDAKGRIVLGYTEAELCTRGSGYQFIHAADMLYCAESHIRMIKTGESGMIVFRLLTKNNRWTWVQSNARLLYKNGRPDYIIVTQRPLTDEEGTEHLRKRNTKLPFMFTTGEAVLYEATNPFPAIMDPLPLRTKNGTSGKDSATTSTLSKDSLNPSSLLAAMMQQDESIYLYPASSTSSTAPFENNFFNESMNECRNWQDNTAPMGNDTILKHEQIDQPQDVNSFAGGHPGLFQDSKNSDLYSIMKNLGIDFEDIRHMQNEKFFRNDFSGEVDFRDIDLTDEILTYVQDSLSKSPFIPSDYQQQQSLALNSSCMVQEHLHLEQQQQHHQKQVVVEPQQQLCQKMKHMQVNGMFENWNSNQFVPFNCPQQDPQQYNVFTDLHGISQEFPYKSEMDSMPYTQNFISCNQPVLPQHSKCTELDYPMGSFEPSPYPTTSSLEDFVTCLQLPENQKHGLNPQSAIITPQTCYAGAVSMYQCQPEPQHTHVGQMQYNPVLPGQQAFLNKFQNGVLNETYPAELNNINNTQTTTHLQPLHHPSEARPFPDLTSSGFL
Kind of series: Induction of AhR degradation in human MCF7 cells at 10 to 20 uM after 6 hrs by Western blot analysis. The conditions noted are these: mcf7, 6 h.

Series [7] deals with T1, Estrogen receptor (Homo sapiens). Nature of the series: Induction of ERalpha degradation in human MCF7 cells assessed as ERalpha/lamin ratio level at 20 uM after 6 hrs by Western blot analysis (reference value: 100%).
Series [8] deals with T2, Androgen receptor (Homo sapiens). Kind of series: Induction of AR degradation in human MCF7 cells assessed as AR/lamin ratio level at 10 uM after 6 hrs by Western blot analysis (reference value: 100%).
Series [9] shares this target. Nature of the series: Induction of AR degradation in human MCF7 cells assessed as AR/lamin ratio level at 20 uM after 6 hrs by Western blot analysis (reference value: 100%).
Series [10] addresses T1, Estrogen receptor (Homo sapiens). Kind of series: Induction of ERalpha degradation in human MCF7 cells assessed as ERalpha/lamin ratio level at 10 uM after 6 hrs by Western blot analysis (reference value: 100%).
In series [11] the target is T3, Aryl hydrocarbon receptor. Kind of series: Induction of AhR degradation in human MCF7 cells assessed as AhR/lamin ratio level at 10 uM after 6 hrs by Western blot analysis (reference value: 100%). To be noted: mcf7, 6 h.
The target in series [12] is T3, Aryl hydrocarbon receptor. Nature of the series: Induction of AhR degradation in human MCF7 cells assessed as AhR/lamin ratio level at 20 uM after 6 hrs by Western blot analysis (reference value: 100%). The conditions noted are these: mcf7, 6 h.

The source made the active and inactive calls. The rule behind the calls is not given here.

On to `CC[C@@H](C)[C@@H]1NC(=O)[C@H](NC(=O)[C@H](N)CCCCNC(=O)CCNC(=O)CCNC(=O)CCNC(=O)CCNC(=O)CCNC(=O)[C@H](NC(=O)[C@H]2CCCN2C(=O)[C@@H](NC(=O)[C@@H](C)NC)C2CCCCC2)C(c2ccccc2)c2ccccc2)CSSC[C@@H](C(=O)N[C@@H](CCCNC(=N)N)C(=O)N[C@@H](CC(C)(C)C)C(=O)N[C@@H](CC(C)C)C(=O)N[C@@H](CCC(N)=O)C(=O)NCC(=O)NCC(=O)NCC(=O)N[C@@H](CCCNC(=N)N)C(=O)N[C@@H](CCCNC(=N)N)C(=O)N[C@@H](CCCNC(=N)N)C(=O)N[C@@H](CCCNC(=N)N)C(=O)N[C@@H](CCCNC(=N)N)C(=O)N[C@@H](CCCNC(=N)N)C(=O)N[C@H](CCCNC(=N)N)C(N)=O)NC(=O)[C@H](CC(C)C)NC1=O`, for which the outcome in series [1] and in series [4] was Active. Moreover, the Activity entry is “Non-toxic” in the series on MCF7; “Not Active” in series [6]; 64% in series [7]; 77% in series [8]; 54% in [9]; 82% in series [10]. Moreover, the figures for the Activity in series [11] and in series [12] were 109% and 98%, respectively. Further, the outcome in series [2], in [3] and in series [5] was inactive.

For the origin of these results see ChEMBL document CHEMBL3797167, “Development of a peptide-based inducer of nuclear receptors degradation” (Bioorg Med Chem Lett, 2016).
